What was measured:
[1] = tested on: in vitro differentiated Treg; experiment: Treg viability assessment; format: cell-based, C57BL/6 mice; details: 72 h; tested 1, 3, 10 or 30 uM
Protocol: Cells were obtained from Lymph nodes and spleen from naive C57BL/6. Cells were then purified with CD4 T cell isolation Kit and with CD25 biotin and microbeads anti-biotin. Purified cells were cultured for 72 h in a 96-wells plate with anti-CD3/CD28 coated (1 ug/ml), TGF-B (1 ng/ml), or Cl27C (1, 3, 10 or 30 uM). After 72 h, the cells were harvested and stained with PBS (2% Bovine serum fetal) and anti-CD4 and fixable viability dye for 10 min. Cells were then fixed and permeabilized with intracellular fixation and permeabilization buffer set (eBioscience). Anti-FoxP3 was used for […]. After the staining, the cells were acquired with FACS VERSE machine and analyzed by FlowJo X software. […]
obtained at 200 × magnification were analyzed using the software Image -J (NIH, USA). Results were expressed as extracellular matrix deposition area (pixels). […]
Akt phosphorylation was measured by western blot as described in the “Western blot analysis” in […]
Cells were obtained from Lymph nodes and spleen from naive C57Bl/6J and purified with CD4 T cell isolation Kit (Miltenyi Biotec #130-104-454) and with CD25 biotin (eBioscience #13-0252-81) and microbeads anti-biotin (Miltenyi Biotec #130-090-485). […] Positive stained cells were analyzed with FlowJo X software after removal of doublets events and debris through FSC-A/FSC-H gating.

[2] = tested on: glucocorticoid-resistant neutrophilic asthma; experiment: Glucocorticoid-resistant asthma model; format: in vivo, BALB/c mice; details: CL27c 2 mg/ml aerosol
Protocol: BALF was performed to obtain leukocytes from alveolar space. The trachea was exposed and a 1.7-mm-outside-diameter polyethylene catheter was inserted. BAL was performed by washing the lungs three-times with three different 500 µl aliquots of PBS. BALF samples were centrifuged at 600 × g for 10 min at 4 °C on a histology glass slide and stained with Diff Quick (MICROPTIC, #DQ-ST). The number of leukocytes and differential counts of different population were obtained evaluating the percentage leukocyte populations over the total cell number.
Mice were anesthetized with a subcutaneous injection of ketamine and xylazine (130 mg/Kg ketamine and 8.5 mg/Kg xylazine) to maintain spontaneous breathing under anesthesia. Mice were tracheostomized, placed in a body plethysmograph and connected to a computer-controlled ventilator (Forced Pulmonary Maneuver System®, Buxco Research Systems©, Wilmington, North Carolina USA). First, an average breathing frequency of 160 breaths/min was imposed to the anesthetized animal by a pressure-controlled ventilation until a regular breathing pattern and complete expiration at each breathing cycle was obtained. Under mechanical respiration, respiratory flow and airway pressure were measured to compute dynamic compliance (Cdyn) and lung resistance (RL). To measure the TLC, pressure–volume maneuvers were performed, where lungs were inflated to a standard pressure of +30 cm H2O and then let slowly exhale until a negative pressure of −30 cm H2O was reached. To measure the FEV Fast-Flow Volume maneuvers was performed. In this maneuver, lungs were first inflated to +30 cm H2O (TLC) and, immediately, a negative pressure (−30 cm H2O) was applied in order to enforce expiration. To evaluate AHR, the same mice used in previous maneuvers (basal condition) received Metacholine, 1 mg/Kg (Acetyl-β-methylcholine chloride, A-2251, Sigma-Aldrich St.Louis, MO,USA) i.v., and 20 sec after, a new set of maneuvers were conducted to assess RL changes. Suboptimal maneuvers were rejected and for each test in every single mouse at least three acceptable maneuvers were conducted to obtain a reliable mean for all numeric parameters.
IL-5, IL-13, eotaxin, TGF-β, KC, IL-17A, and MCP-1 levels in the BALF and anti-OVA IgE levels in serum were measured by ELISA technique using commercial DuoSet kits R&D Systems according to the instructions of the manufacturer. Results were expressed in levels of cytokines per ml of […] (pg/ml) or arbitrary units (A.U.).
On day 1 BALB/c mice received systemic immunization by subcutaneous injection of 20 µg of chicken egg ovalbumin (OVA grade V, >98% pure; Sigma, St Louis, MO) in saline, emulsified in 75 µL CFA (Complete Freund’s Adjuvant; Sigma-Aldrich) (Figure 5)[52]. On days 25–28 mice were exposed to aerosolised ovalbumin (1% in saline) for 20 min per day. Mice were exposed during 30 min to aerosolized CL27c (2 mg/ml dissolved in 0.5 % tylaxopol/saline solution) or vehicle (0.5% tyloxapol/saline solution), or to systemic treatment with dexamethasone (5 mg/kg i.p. injection). Untreated control groups included mice challenged with PBS alone. On day 29, mice were sacrificed, and samples were collected for further analysis.
The left lung was removed and fixed in 4% neutral phosphate-buffered formalin (pH 7.4)[10]. The tissues were dehydrated gradually in ethanol, embedded in paraffin, cut into 4 µm sections, stained with H&E, Gomori’s trichrome and periodic acid schiff (PAS), and examined under light microscopy by a pathologist in a double blinded manner. Images of lung sections were captured with a digital camera (Optronics DEI-470) connected to a microscope (Olympus IX70) with a magnification of ×40 or ×100. Inflammation was scored according to modification of existing protocols[53] and to the histopathology criteria reported in Supplementary Table 4.

With COC(=O)c1cccc(Cn2cc(-c3cccc4c(=O)cc(N5CCOCC5)[nH]c34)nn2)c1 [CL27c] the “concentration with toxic effects on Treg viability” value [1] was 30 µM, the “abundance of cytokines (MCP-1, IL-17A, KC, Eotaxin, IFN-γ)” value [2] was “could not block systemic production of these mediators” and the “airway hyperreactivity and lung resistance” value ([2]; dexamethasone 5 mg/kg i.p.) was “without modifying either airway hyperreactivity or lung resistance”. For the same compound, the “histopathology: overall score of lung damage / tissue inflammation” value ([2]; dexamethasone 5 mg/kg i.p.) was “significantly reduce the overall score of lung damage”, the “lung compliance (Cdyn)” value ([2]; dexamethasone 5 mg/kg i.p.) was “restored normal lung compliance” and the “number of inflammatory cells in BALF” value ([2]; dexamethasone 5 mg/kg i.p.) was “reduce the number of inflammatory cells in BALF”.

Source: article PMC6290777, “Inhalation of the prodrug PI3K inhibitor CL27c improves lung function in asthma and fibrosis” (Nature Communications, 2018)
